Assay results reported in PubChem BioAssay AID330 (DTP/NCI, 2004).
Values joined by “and” are separate entries in the source; they are usually repeats but may differ in a detail not shown here. Identical values can stand only once. Toxic doses and inconclusive results are not listed.

System: P388 leukemia ip, CD2F1 mice, survival T/C
Assay: NCI In Vivo Anticancer Drug Screen. Data for tumor model P388 Leukemia (intraperitoneal) in CD2F1 (CDF1) mice
Conditions: endpoint: median survival time, higher = longer survival
In short: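 Mice carrying the transplanted tumor received test compound or vehicle. Survival was recorded in each group, and the value is the treated-group measurement divided by that of the vehicle-treated control group.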

[1] = dose: 50.0 mg/kg/injection, schedule: Q01DX005 (ip), vehicle: Klucel (hydroxypropylcellulose) (HPC)
[2] = dose: 100.0 mg/kg/injection, schedule: Q01DX005 (ip), vehicle: Klucel (hydroxypropylcellulose) (HPC)
[3] = dose: 50.0 mg/kg/injection, schedule: Q01DX009 (ip), vehicle: saline with Tween-80
[4] = dose: 100.0 mg/kg/injection, schedule: Q01DX009 (ip), vehicle: saline with Tween-80
[5] = dose: 200.0 mg/kg/injection, schedule: Q01DX009 (ip), vehicle: saline with Tween-80
[6] = dose: 60.0 mg/kg/injection, schedule: Q01DX005 (ip), vehicle: saline with Tween-80
[7] = dose: 120.0 mg/kg/injection, schedule: Q01DX005 (ip), vehicle: saline with Tween-80
[8] = dose: 240.0 mg/kg/injection, schedule: Q01DX005 (ip), vehicle: saline with Tween-80
[9] = dose: 50.0 mg/kg/injection, schedule: Q01DX009 (ip), vehicle: saline
[10] = dose: 200.0 mg/kg/injection, schedule: Q01DX005 (ip), vehicle: Klucel (hydroxypropylcellulose) (HPC)
[11] = dose: 50.0 mg/kg/injection, schedule: Q01DX005 (ip), vehicle: saline with Tween-80
[12] = dose: 100.0 mg/kg/injection, schedule: Q01DX005 (ip), vehicle: saline with Tween-80
[13] = dose: 200.0 mg/kg/injection, schedule: Q01DX005 (ip), vehicle: saline with Tween-80

CCN(CCOC(=O)Nc1ccc(Cl)cc1)C(=O)Nc1ccc(Cl)cc1
T/C (dose: 60.0 mg/kg/injection, schedule: Q01DX005 (ip), vehicle: Klucel + Tween-80): 90 % of control | T/C (dose: 120.0 mg/kg/injection, schedule: Q01DX005 (ip), vehicle: Klucel + Tween-80): 87 % of control | T/C (dose: 240.0 mg/kg/injection, schedule: Q01DX005 (ip), vehicle: Klucel + Tween-80): 87 % of control

COc1ccc(CCNS(=O)(=O)c2c(C)c(C)c(C)c(C)c2C)cc1OC
T/C [1]: 93 % of control | T/C [2]: 88 % of control

CC(O)CNc1n[nH]c(=O)c2ccccc12 (stereo unspecified)
T/C [3]: 101 % of control | T/C [4]: 104 % of control | T/C [5]: 94 % of control

Cc1csc2ccccc12
T/C [3]: 102 % of control | T/C [6]: 101 % of control | T/C [4]: 119 % of control | T/C [7]: 100 % of control | T/C [5]: 92 % of control | T/C [8]: 100 % of control

Cc1cc(=O)[nH]c2cc3oc4ccccc4c3cc12
T/C [6]: 98 % of control | T/C [7]: 102 % of control | T/C [8]: 103 % of control

CSC(=S)N/N=C(/C)c1ccco1
T/C [3]: 105 % of control | T/C [4]: 95 % of control

CCSC(C)(C)C
T/C [9]: 102 % of control | T/C (dose: 100.0 mg/kg/injection, schedule: Q01DX009 (ip), vehicle: saline): 100 % of control | T/C (dose: 200.0 mg/kg/injection, schedule: Q01DX009 (ip), vehicle: saline): 100 % of control

COc1ccc(/C=C(/C(=O)O)c2ccc(OC)cc2)cc1
T/C (dose: 100.0 mg/kg/injection, schedule: Q04DX003 (ip), vehicle: other): 100 % of control | T/C (dose: 200.0 mg/kg/injection, schedule: Q04DX003 (ip), vehicle: other): 95 % of control | T/C (dose: 400.0 mg/kg/injection, schedule: Q04DX003 (ip), vehicle: other): 100 % of control

CN(C)C(=O)CC(O)c1ccccc1 (stereo unspecified)
T/C (dose: 50.0 mg/kg/injection, schedule: Q01DX005 (ip), vehicle: saline): 102 % of control | T/C (dose: 100.0 mg/kg/injection, schedule: Q01DX005 (ip), vehicle: saline): 105 % of control | T/C (dose: 200.0 mg/kg/injection, schedule: Q01DX005 (ip), vehicle: saline): 100 % of control

O=C(COc1ccccc1)OC(=O)COc1ccccc1
T/C (dose: 25.0 mg/kg/injection, schedule: Q01DX009 (ip), vehicle: other): 109 % of control | T/C (dose: 50.0 mg/kg/injection, schedule: Q01DX009 (ip), vehicle: other): 100 % of control | T/C (dose: 100.0 mg/kg/injection, schedule: Q01DX009 (ip), vehicle: other): 93 % of control | T/C (dose: 200.0 mg/kg/injection, schedule: Q01DX009 (ip), vehicle: other): 98 % of control

CCOc1ccccc1C=C1c2ccccc2C(=O)c2ccccc21
T/C [3]: 96 % of control | T/C [4]: 92 % of control | T/C [5]: 91 % of control

O=C1CC(=P(c2ccccc2)(c2ccccc2)c2ccccc2)C(=O)O1
T/C (dose: 50.0 mg/kg/injection, schedule: Q04DX003 (ip), vehicle: saline): 102 % of control | T/C (dose: 100.0 mg/kg/injection, schedule: Q04DX003 (ip), vehicle: saline): 100 % of control | T/C (dose: 200.0 mg/kg/injection, schedule: Q04DX003 (ip), vehicle: saline): 109 % of control | T/C (dose: 400.0 mg/kg/injection, schedule: Q04DX003 (ip), vehicle: saline): 106 % of control

COc1cc(C/C(=C\c2ccc3c(c2)OCO3)[N+](=O)[O-])ccc1OCc1ccccc1
T/C (dose: 100.0 mg/kg/injection, schedule: Q01DX001 (ip), vehicle: Klucel (hydroxypropylcellulose) (HPC)): 98 % of control | T/C (dose: 200.0 mg/kg/injection, schedule: Q01DX001 (ip), vehicle: Klucel (hydroxypropylcellulose) (HPC)): 96 % of control | T/C (dose: 400.0 mg/kg/injection, schedule: Q01DX001 (ip), vehicle: Klucel (hydroxypropylcellulose) (HPC)): 96 % of control

O=C(NNCNNC(=O)c1ccncc1)c1ccncc1
T/C [1]: 100 % of control | T/C [2]: 100 % of control | T/C [10]: 96 % of control

Cc1ccc(Nc2nnc(Nc3ccc(C)cn3)c3ccccc23)nc1
T/C [11]: 90 % of control | T/C [12]: 89 % of control

CCC1OC(=O)C2C(c3ccccc3)=NOC2[C@H]1C (stereo partly specified)
T/C [6]: 102 % of control | T/C [7]: 101 % of control | T/C [8]: 94 % of control

O=c1[nH]c2c(ccc3ccc[n+]([O-])c32)c2c1CCC2
T/C (dose: 100.0 mg/kg/injection, schedule: Q04DX002 (ip), vehicle: saline): 100 % of control | T/C (dose: 200.0 mg/kg/injection, schedule: Q04DX002 (ip), vehicle: saline): 90 % of control | T/C (dose: 400.0 mg/kg/injection, schedule: Q04DX002 (ip), vehicle: saline): 100 % of control

N#Cc1c(C(=O)NN)cc(-c2ccc3ccccc3c2)[nH]c1=O
T/C [11]: 100 % of control | T/C [12]: 98 % of control

O=C1OC(=O)c2cc([N+](=O)[O-])cc3cccc1c23
T/C [11]: 108 % of control and 110 % of control (2×) | T/C [12]: 100 % of control and 103 % of control and 111 % of control | T/C [13]: 102 % of control and 110 % of control and 123 % of control | T/C (dose: 400.0 mg/kg/injection, schedule: Q01DX005 (ip), vehicle: saline with Tween-80): 119 % of control

C/C(=N\NC(=S)N1CCN(c2ccccn2)CC1)c1cccc2cccnc12
T/C [11]: 103 % of control | T/C [12]: 106 % of control | T/C [13]: 110 % of control

c1ccc2c(c1)c1ccccc1c1n[se]nc21
T/C (dose: 15.0 mg/kg/injection, schedule: Q01DX005 (ip), vehicle: saline with Tween-80): 90 % of control | T/C (dose: 30.0 mg/kg/injection, schedule: Q01DX005 (ip), vehicle: saline with Tween-80): 90 % of control | T/C [6]: 98 % of control

CC1(C#N)CCCC(c2ccccc2)(c2ccccc2)C1=O (stereo unspecified)
T/C (dose: 100.0 mg/kg/injection, schedule: Q04DX003 (ip), vehicle: Klucel (hydroxypropylcellulose) (HPC)): 103 % of control | T/C (dose: 200.0 mg/kg/injection, schedule: Q04DX003 (ip), vehicle: Klucel (hydroxypropylcellulose) (HPC)): 98 % of control | T/C (dose: 400.0 mg/kg/injection, schedule: Q04DX003 (ip), vehicle: Klucel (hydroxypropylcellulose) (HPC)): 100 % of control

Cc1ccc(NC(=O)Oc2ccc(C#N)cc2)cc1Cl
T/C (dose: 60.0 mg/kg/injection, schedule: Q01DX005 (ip), vehicle: Klucel (hydroxypropylcellulose) (HPC)): 118 % of control | T/C (dose: 120.0 mg/kg/injection, schedule: Q01DX005 (ip), vehicle: Klucel (hydroxypropylcellulose) (HPC)): 111 % of control | T/C (dose: 240.0 mg/kg/injection, schedule: Q01DX005 (ip), vehicle: Klucel (hydroxypropylcellulose) (HPC)): 118 % of control

CS(C)(=O)=Nc1ccc(F)cc1
T/C (dose: 100.0 mg/kg/injection, schedule: Q01DX001 (ip), vehicle: saline with Tween-80): 99 % of control | T/C (dose: 200.0 mg/kg/injection, schedule: Q01DX001 (ip), vehicle: saline with Tween-80): 99 % of control | T/C (dose: 400.0 mg/kg/injection, schedule: Q01DX001 (ip), vehicle: saline with Tween-80): 99 % of control

CS(=O)(=O)OCCN(CCOS(C)(=O)=O)c1ccc(C=Nc2ccc(-c3csc(Cc4ccccc4)n3)cc2)cc1
T/C (dose: 6.25 mg/kg/injection, schedule: Q01DX009 (ip), vehicle: saline): 115 % of control | T/C (dose: 12.5 mg/kg/injection, schedule: Q01DX009 (ip), vehicle: saline): 110 % of control | T/C (dose: 12.5 mg/kg/injection, schedule: Q01DX009 (ip), vehicle: suspension in saline): 163 % of control | T/C (dose: 25.0 mg/kg/injection, schedule: Q01DX009 (ip), vehicle: suspension in saline): 164 % of control | T/C [9]: 153 % of control | T/C (dose: 50.0 mg/kg/injection, schedule: Q01DX009 (ip), vehicle: suspension in saline): 174 % of control

CNc1ccc(/C=C/c2ccnc3ccccc23)cc1
T/C (dose: 3.12 mg/kg/injection, schedule: Q01DX009 (ip), vehicle: Klucel (hydroxypropylcellulose) (HPC)): 95 % of control and 98 % of control | T/C (dose: 6.25 mg/kg/injection, schedule: Q01DX009 (ip), vehicle: Klucel (hydroxypropylcellulose) (HPC)): 108 % of control and 111 % of control and 112 % of control | T/C (dose: 12.5 mg/kg/injection, schedule: Q01DX009 (ip), vehicle: Klucel (hydroxypropylcellulose) (HPC)): 113 % of control and 97 % of control | T/C (dose: 25.0 mg/kg/injection, schedule: Q01DX009 (ip), vehicle: Klucel (hydroxypropylcellulose) (HPC)): 109 % of control and 87 % of control

CSC(=O)NC(=Nc1ccccc1)NC(=O)c1ccccc1
T/C (dose: 12.5 mg/kg/injection, schedule: Q01DX005 (ip), vehicle: Klucel (hydroxypropylcellulose) (HPC)): 90 % of control | T/C (dose: 25.0 mg/kg/injection, schedule: Q01DX005 (ip), vehicle: Klucel (hydroxypropylcellulose) (HPC)): 93 % of control | T/C [1]: 91 % of control | T/C [2]: 88 % of control | T/C [10]: 89 % of control and 91 % of control

c1nc(N2CCCCC2)c2[nH]cnc2n1
T/C [1]: 109 % of control | T/C [2]: 104 % of control
